The text below walks through data of article PMC11509912, “Identification of Novel PPARγ Partial Agonists Based on Virtual Screening Strategy: In Silico and In Vitro Experimental Validation” (Molecules, 2024).

For experiment [1], the target named is T1, PPARγ (Homo sapiens, UniProt P37231).
T1 construct: gene PPARG; hPPARγ plasmid
T1 sequence (P37231 1-505): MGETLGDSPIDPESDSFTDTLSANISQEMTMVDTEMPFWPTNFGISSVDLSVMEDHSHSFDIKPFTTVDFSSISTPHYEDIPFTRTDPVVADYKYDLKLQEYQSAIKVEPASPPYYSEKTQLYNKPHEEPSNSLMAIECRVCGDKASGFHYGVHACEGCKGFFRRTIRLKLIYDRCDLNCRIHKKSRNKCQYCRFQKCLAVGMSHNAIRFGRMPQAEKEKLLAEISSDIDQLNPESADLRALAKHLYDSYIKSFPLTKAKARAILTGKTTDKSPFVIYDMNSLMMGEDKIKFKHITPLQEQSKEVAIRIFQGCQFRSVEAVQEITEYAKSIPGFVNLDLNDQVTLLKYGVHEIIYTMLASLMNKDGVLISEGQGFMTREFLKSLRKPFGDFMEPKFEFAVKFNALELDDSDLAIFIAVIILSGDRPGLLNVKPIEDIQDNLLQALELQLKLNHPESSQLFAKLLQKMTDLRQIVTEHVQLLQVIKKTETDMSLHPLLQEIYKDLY
Description: cos-7 cells transfected with hPPARγ, PPRE×[…] TK-luciferase transactivation assay at […]. Type of experiment: cell-based.

Experiment [2] addresses T2, PPARγ (Homo sapiens, UniProt P37231).
T2 construct: gene PPARG; PPARγ LBD
T2 sequence (P37231 231-505 limits assumed): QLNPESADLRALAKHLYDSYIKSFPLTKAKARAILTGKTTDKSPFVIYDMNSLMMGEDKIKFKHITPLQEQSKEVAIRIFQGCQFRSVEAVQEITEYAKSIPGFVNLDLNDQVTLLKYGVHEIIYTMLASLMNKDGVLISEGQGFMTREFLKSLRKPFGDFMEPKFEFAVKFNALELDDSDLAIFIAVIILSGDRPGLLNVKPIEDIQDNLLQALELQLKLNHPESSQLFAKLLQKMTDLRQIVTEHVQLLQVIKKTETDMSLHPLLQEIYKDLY
Description: LanthaScreen TR-FRET competitive binding assay (IC50 […]); supported by cell-based PPRE-luciferase assay (weak/partial agonism). On the technique in general: TR-FRET usually uses a lanthanide donor and a delayed reading to cut background.

In the case of `Clc1ccc(C(Cn2ccnc2)OCc2ccc(Sc3ccccc3)cc2)c(Cl)c1` (centres unmarked) [FN, fenticonazole], the “cos-7 cells transfected with hPPARγ, PPRE×3 TK-luciferase transactivation assay” value on PPARγ [1] is recorded as “podophyllotoxone exhibited weak PPARγ agonistic activity, similar to fenticonazole (FN), a PPARγ partial agonist”.
As for `COc1cc([C@@H]2c3cc4c(cc3C(=O)[C@H]3COC(=O)[C@H]23)OCO4)cc(OC)c1OC` [podophyllotoxone], the affinity at PPARγ [2] corresponds to a Ki of 9.86 µM. This counts as single-digit micromolar.

One may read the Ki as the dissociation constant of the complex between target and ligand, obtained from inhibition or displacement. Low values mean higher affinity, high ones lower affinity.
